In experiment [1] the test system is gp130. Description: Overexpressed gp130 protein levels in transfected Hek293 cells (Western blot). The settings on record: Hek293 transfected with gp130 expression vector; 200 mM M16αα 9 h, 20 h after transfection. The format is cell-based. As to the method:
Hek293 cells were transfected with an expression vector for gp130. Following 20 h M16αα ([…]) was added for 9 h. Western blots of cell lysates were reacted with anti gp130 antibodies and normalized by β-actin. Abbreviations: cont. (control).
In order to examine the mode of action of M16αα in reducing gp130 protein levels, Hek293 cells were transfected with an expression vector for the gp130 protein. Following 20 h after transfection, M16αα ([…]) was added for 9 h. Western blots of cells lysates were reacted with anti-gp130 antibodies and normalized by β-actin. […] This effect was clearer when smaller amounts of plasmid were used for transfection (0.2 microgram).
On the technique in general: Immunoblotting shows a protein as a band on a membrane.

In experiment [2] the test system is HT29 colon cancer cells. Description: HT29 cell number, trypan blue exclusion assay. The class given is cell-based. The settings on record: 200 μM, days 1, 2, 3 and 6. As to the method:
Abbreviations: D. (days) cont, (control), RCN (relative cell number).
Cells were cultured in Dulbecco's Modified Eagle Medium (DMEM) supplemented with 10% fetal calf serum, glutamine and antibiotics (100,000 units/L penicillin and 100 mg/L streptomycin sulfate).
The involvement of MEDICA drugs in signal transduction pathways related to immuno-modulatory mechanisms have led the inventors to further investigate the effect of the MEDICA drugs in different disorders associated with abnormal immune reaction. Since cancerous processes may be promoted as a result of interruption of the Th1/Th2 balance, the possible beneficial effect of the MEDICA drugs on tumor proliferation and progression have been next examined. The effect of different concentrations M16αα on cell proliferation was first examined in vitro using the HT29 colon cancer cells as a model for colon cancer. Cells were cultured in the presence of different concentrations of M16αα (50, 100, and 200 μM). Samples obtained from days 1, 2, 3 and 6 were analyzed for cell number using the trypan blue exclusion assay. Proliferation was measured by BrdU incorporation assay.

In experiment [3] the test system is RPMI8226 cells. Description: Growth of Multiple Myeloma RPMI8226 cells, Trypan Blue exclusion. The class given is cell-based. The note with it: 200 μM, from day one. The procedure: Growth Suppression by M16αα of Multiple Myeloma (MM) cells. MM cells were incubated in RPMI 1640 medium in the presence of added M16αα as indicated. Cell number was determined daily by Trypan Blue exclusion.
The inhibitory effect of MEDICA drugs on colon tumor cell proliferation, presumably via activation of apoptosis, encouraged the inventors to further investigate the potential beneficial effect of these compounds on other malignancies. The inventors therefore next examined the effect of the MEDICA drugs using the Multiple myeloma model. U-266 and RPMI-8226 cell lines served as cell models for MM. MM cells were incubated in RPMI 1640 medium in the presence of M16αα as indicated. Cell number was determined daily by Trypan Blue exclusion assay. […] It should be noted that generally, these cells were more sensitive even to lower concentrations of M16αα.

Experiment [4] concerns STAT3. Nature of the experiment: STAT3 phosphorylation in MM U266 cells (Western blot). The format is cell-based. The note with it: 200 μM, RPMI 1640, 10% FCS. As to the method: (§1) U266 cells were cultured with 200 μM M16αα for time periods as indicated, lysed, Western blotted and reacted with anti STAT3, p-STAT3 (Y705), PARP or Bcl-xL antibodies.
(§2) To examine the possibility that the inhibitory effect of M16αα, on Multiple Myeloma may be mediated by enhancement of pro apoptotic mechanism and induction of cell cycle arrest, U266 cells were cultured with 200 μM M16αα in RPMI 1640 medium with 10% FCS for time periods as indicated, lysed, Western blotted and reacted with anti STAT3, p-STAT3 (Y705), PARP or Bcl-xL and Bcl-2 as indicated.

In experiment [5] the test system is U266 cells. Description: Apoptosis markers (PARP, Bcl-2, Bcl-xL) in MM U266 cells (Western blot). The class given is cell-based. The note with it: 200 μM. The procedure: as §1, §2
Experiment [6] deals with RPMI8226 cells. Description: Cell cycle arrest markers in MM RPMI8226 cells (Western blot). The format is cell-based. The settings on record: 200 μM, 24 h. The procedure:
Cell Cycle arrest of MM RPMI8226 by M16αα. RPMI8226 cells were cultured with 200 μM M16αα, in RPMI 1640 medium with 10% FCS for 24 h, lysed, Western blotted and reacted with anti p-P53(S15) and p-Rb as indicated.

Experiment [7] has as its system Experimental Autoimmune Encephalomyelitis (EAE). Description: EAE (MOG35-55) model for MS, clinical score. The note with it: for day of fully established EAE: control day 24. The class given is in vivo, female C57BL/6 mice.
The test system of experiment [8] is STAT3, GP130. Description: STAT3 activation and GP130 in stimulated spleen cells of treated EAE mice (Western blot). The class given is in vivo. The settings on record: EAE mice 60 mg/kg/day 12 days by gavage. The procedure: To further investigate the preventive potential of MEDICA drugs, and specifically of M16αα on EAE model, the effect of these drugs on different pathways involving activation of the immune system have been next examined. Therefore, female mice were treated with M16αα (60 mg/kg/day) or vehicle (1% CMC, the control group) for 12 days by gavage. On the third day EAE has been induced by injection of the MOG35-55 peptide. Nine days following MOG35-55 peptide immunization, mice were anesthesized and sacrificed. Spleenocytes were prepared and were stimulated in vitro with either MOG (100 μg/ml) or LPS (50 μg/ml) and the activation of STAT3 was analyzed by Western blot using anti p-STAT3 (Y705) and anti GP130 antibodies. Liver was immediately frozen in liquid nitrogen and kept at −70 until used for protein and RNA preparation. Total RNA was prepared and analyzed by real time PCR for SAP, SAA, α-fibrinogen and IL-6 gene expression.

Data on one compound can be found in patent publication US20100113599A1, “AMPHIPATHIC CARBOXYLATES FOR THE TREATMENT OF IMMUNE-RELATED DISORDERS” (Syndromex Ltd. c/o Yissum Research Development Company, of, priority 2007, published 2010).

Regarding `CC(C)(CCCCCCCCCCCCC(C)(C)C(=O)O)C(=O)O` [M16αα, 2,2,15,15-tetramethyl-hexadecanedioic acid], the “gp130 protein levels (overexpressed)” value in experiment [1] is given as “clear reduction”. The “cell number (relative cell number)” value in experiment [2] is “significant reduction”. Moreover, the “cell number relative to control” value in experiment [3] is recorded as “about 20 % of control”. Also, in experiment [4], the “STAT3 phosphorylation (p-STAT3 Y705)” value is reported as “clear reduction”. The “anti-apoptotic markers (Bcl-2, Bcl-xL)” value in experiment [5] is given as “concomitant decrease”. Further, in experiment [5] (compared to control cells), the “cleavage of PARP” value is on record as “enhancement”. Further, the “phosphorylated Rb” value in experiment [6] is listed as “reduction”. The “phosphorylated p53” value in experiment [6] is on record as “increase”. Further, the “average maximal clinical score” value in experiment [7] (Preventive Group A: 30 mg/kg BW daily from three days prior to MOG challenge to day 37, control group D 4.3) is recorded as 1.3; in experiment [7] (group B: 30 mg/kg BW daily from seventh day following MOG injection to day 52, control group D 4.3) it was 4.3; in experiment [7] (group C: 30 mg/kg BW daily from first day to day 52, control group D 4.3), 3.8. In addition, in experiment [7] (Preventive Group A: after termination of treatment (vehicle day 37 to day 52), control group D 4.3), the “average maximal clinical score upon termination of treatment” value is listed as ~2.0. For the same compound, the “day of fully established EAE” value in experiment [7] (group B: 30 mg/kg BW daily from seventh day to day 52) and in experiment [7] (group C: 30 mg/kg BW daily from first day to day 52) was 40 days in each case. For the same compound, the “LPS-induced STAT3 (p-STAT3 Y705) in spleen cells” value in experiment [8] (spleenocytes stimulated in vitro with LPS 50 μg/ml) is recorded as “not the LPS-induced STAT3 is suppressed”. Further, in experiment [8] (spleenocytes stimulated in vitro with MOG 100 μg/ml), the “MOG-induced STAT3 (p-STAT3 Y705) in spleen cells” value is recorded as “suppressed”.
